Assay results: US10392394B2, “Antimicrobial compounds and methods” (Board of Supervisors of Louisiana State University and …, priority 2013, dated 2019)

Tests used:
[1] = test system: Human gingival fibroblasts; assay: Biocompatibility (cytotoxicity) test, Calcein-AM cell survival; assay type: cell-based; settings: 24 h exposure, FIG. 1
Description: Synthesized monomers (Formulas 4-6, 10, and 11) and methacryloyloxyundecyldi-methylbenzylammonium bromide (Formula 1) were tested for biocompatibility (cytotoxicity). Human gingival fibroblasts were obtained from extracted molars from patients with healthy gingival following informed consent as prescribed in an approved IRB protocol. Gingival fibroblasts were maintained in MEM containing 10% fetal calf serum (FCS) and 200 units/mL penicillin and 200 μg/mL streptomycin. Cells were grown in 48-well plates for 24 h prior to exposure to the monomers. The growth media containing 0.1% dimethylsulfoxide (DMSO) were supplemented with 10^−4 M, 10^−5 M, 10^−6 M and 10^−7 M concentrations of five newly synthesized exemplary monomers (Formulas 4-6, 10, and 11) and added to the cells for 24 h. MEM served as a control for cytotoxicity. Cell survival was visualized using a fluorescent esterase substrate (Calcein-AM) and a inverted fluorescent microscope. Cell survival was quantified using a fluorescent multi-well plate reader.

[2] = test system: Streptococcus mutans, Lactobacillus casei, Staphylococcus aureus and Pseudomonas aeruginosa; assay: Antimicrobial activity, automated growth curve analysis; assay type: cell-based; settings: 10^−4 M-10^−7 M in BMGS medium, triplicate, FIG. 2
Description: Evaluation of antimicrobial activities of Formula 1 and synthesized monomers (Formulas 4-6, 10, and 11) was also performed. Streptococcus mutans was grown in brain heart infusion (BHI, Difco Laboratories, Detroit, Mich.), Lactobacillus casei was grown in MRS medium (Difco), Staphylococcus aureus and Pseudomonas aeruginosa were grown in Trypticase Soy Broth (TSB; Difco). They all were grown under static conditions in an 37° C. aerobic chamber with (for S. mutans only) or without 5% CO2. For antimicrobial assay, these bacteria were cultivated using a modified semi-defined biofilm medium (BM) with glucose (18 mM) and sucrose (2 mM) (BMGS) as the supplemental carbohydrate sources. Antimicrobial efficacy was measured using an automated growth curve analysis system. Overnight cultures were transferred to fresh medium and allowed to grow to mid-exponential phase, when they were properly diluted in BMGS and allowed to grow in the automated growth curve analysis system with and without inclusion of Formula 1 and synthesized monomers (Formulas 4-6, 10, and 11). All antimicrobial monomers were dissolved in DMSO at 10^−2 M concentration and serial dilutions were made to achieve the desired concentrations (10^−4 M-10^−7 M). All experiments were run in triplicate.

[3] = concentrations of 10^−5 M and below

SMILES	cytotoxicity (cell survival) ([1]; 10^−4 M concentration)	cytotoxicity (cell survival) [1, 3]	antibacterial activity [2]
C=C(C)C(=O)OCC(COC(=O)C(=C)C)OC(=O)CCCCCCCCCCCCCCC[N+](C)(C)Cc1ccccc1 [Formula 6, 2-(1,3-dimethacryloyloxy)propyl 16-N,N-dimethylbenzylammoniumhexadecanoate bromide]	significant cell death	good biocompatibility	Highest levels of antibacterial activity
C=C(C)C(=O)OCC(COC(=O)C(=C)C)OC(=O)CCCCCCCCC[N+]12CCN(CC1)CC2.[Br-] [Formula 4, 2-(1,3-dimethacryloyloxy)propyl 10-(1-(1-azonia-4-azabicylco[2.2.2]octyl))decanoate bromide]	little cytotoxicity		
C=C(C)C(=O)OCC(COC(=O)C(=C)C)OC(=O)CCCCCCCCCCCCCCC[N+]12CCN(CC1)CC2.[Br-] [Formula 5, 2-(1,3-dimethacryloyloxy)propyl 16-(1-(1-azonia-4-azabicylco[2.2.2]octyl))hexadecanoate bromide]	significant cell death	good biocompatibility	Highest levels of antibacterial activity
C=C(C)C(=O)OCCCCCCCCCCCCCCCC[N+]12CCN(CC1)CC2.[Br-] [Formula 11, 16-(1-azonia-4-azabicylco[2.2.2]octyl)hexadecylmethacrylate bromide]	little cytotoxicity		
